Source: patent US11130724B2, “Compound, resin, composition, resist pattern formation method, and circuit pattern formation method” (Mitsubishi Gas Chemical Company, Inc., priority 2015, dated 2021)

Assay: Solubility test in propylene glycol monomethyl ether (PGME)
Settings: 5% by mass in PGME, 5° C., 30 days
Method: A compound was dissolved at 5% by mass in propylene glycol monomethyl ether (PGME) at 23° C. Then, the solution was left to stand still at 5° C. for 30 days.
Evaluation A: No precipitate was visually confirmed.
Evaluation C: Precipitates were visually confirmed.

Structure (SMILES)	solubility (summary in words of Table 7)
CC(c1ccc(O)cc1)(c1ccc(O)cc1)c1ccc(C2CCCCC2)cc1 [P-2]	good
CC(c1ccc(-c2ccccc2)cc1)(c1cc(-c2ccc(O)cc2)ccc1O)c1cc(-c2ccc(O)cc2)ccc1O [BiP-2]	good
CC(c1ccc(C2CCCCC2)cc1)(c1ccc(O)c(-c2ccccc2O)c1)c1ccc(O)c(-c2ccccc2O)c1 [BiP-4]	good
CC1(c2ccc(-c3ccccc3)cc2)c2ccc(O)cc2Oc2cc(O)ccc21 [P-3]	good
CC(c1ccc(-c2ccccc2)cc1)(c1c(O)ccc2ccc(O)cc12)c1c(O)ccc2ccc(O)cc12 [BiN-3]	good
CC(c1ccc(-c2ccccc2)cc1)(c1c(O)ccc2cc(O)ccc12)c1c(O)ccc2cc(O)ccc12 [BiN-2]	good
CC(c1ccc(-c2ccccc2)cc1)(c1c(O)ccc2ccccc12)c1c(O)ccc2ccccc12 [BiN-1]	good
CC1(c2ccc(C3CCCCC3)cc2)c2ccc(O)cc2Oc2cc(O)ccc21 [P-4]	good
CC1(c2ccc(-c3ccccc3)cc2)c2c(ccc3cc(O)ccc23)Oc2ccc3cc(O)ccc3c21 [XBiN-1]	good
CC(c1ccc(-c2ccccc2)cc1)(c1ccc(O)c(-c2ccccc2)c1)c1ccc(O)c(-c2ccccc2)c1 [BiP-1]	good
CC1(c2ccc(C3CCCCC3)cc2)c2c(ccc3cc(O)ccc23)Oc2ccc3cc(O)ccc3c21 [XBiN-3]	good
CC(c1ccc(C2CCCCC2)cc1)(c1c(O)ccc2cc(O)ccc12)c1c(O)ccc2cc(O)ccc12 [BiN-4]	good
CC1(c2ccc(-c3ccccc3)cc2)c2c(ccc3ccc(O)cc23)Oc2ccc3ccc(O)cc3c21 [XBiN-2]	good
CC(c1ccc(-c2ccccc2)cc1)(c1ccc(O)c(-c2ccccc2O)c1)c1ccc(O)c(-c2ccccc2O)c1 [BiP-3]	good
